# Data as given in patent US7045300B2, “Lectin protein prepared from Maackia fauriei, process for preparing the same and the use thereof” (priority 2001, dated 2006).
# B1: Fetuin: glycoprotein containing N-acetylneuraminic acid (protein, UniProt P12763 19-359, looked up)
# Alpha-2-HS-glycoprotein: IPLDPVAGYKEPACDDPDTEQAALAAVDYINKHLPRGYKHTLNQIDSVKVWPRRPTGEVYDIEIDTLETTCHVLDPTPLANCSVRQQTQHAVEGDCDIHVLKQDGQFSVLFTKCDSSPDSAEDVRKLCPDCPLLAPLNDSRVVHAVEVALATFNAESNGSYLQLVEISRAQFVPLPVSVSVEFAVAATDCIAKEVVDPTKCNLLAEKQYGFCKGSVIQKALGGEDVRVTCTLFQTQPVIPQPQPDGAEAEAPSAVPDAAGPTPSAAGPPVASVVVGPSVVAVPLPLHRAHYDLRHTFSGVASVESSSGEAFHVGKTPIVGQPSIPGGPVRLCPGRIRYFKI
# B2: Asialofetuin: glycoprotein tested as hemagglutination inhibitor (protein, UniProt P12763 19-359, looked up)
# Alpha-2-HS-glycoprotein: IPLDPVAGYKEPACDDPDTEQAALAAVDYINKHLPRGYKHTLNQIDSVKVWPRRPTGEVYDIEIDTLETTCHVLDPTPLANCSVRQQTQHAVEGDCDIHVLKQDGQFSVLFTKCDSSPDSAEDVRKLCPDCPLLAPLNDSRVVHAVEVALATFNAESNGSYLQLVEISRAQFVPLPVSVSVEFAVAATDCIAKEVVDPTKCNLLAEKQYGFCKGSVIQKALGGEDVRVTCTLFQTQPVIPQPQPDGAEAEAPSAVPDAAGPTPSAAGPPVASVVVGPSVVAVPLPLHRAHYDLRHTFSGVASVESSSGEAFHVGKTPIVGQPSIPGGPVRLCPGRIRYFKI
# modifications: desialylated
# How the values were obtained:
# [1] = tested on: lectin MFA; experiment: Hemagglutination-inhibition assay of the lectin MFA with monosaccharide, disaccharide and glycoprotein; type: biochemical, Maackia fauriei; design: key to Minimum erythrocyte agglutination inhibition concentration: —: The negative sign (−) means that there is no hemagglutination-inhibition; details: for Minimum erythrocyte agglutination inhibition concentration: 6.25% mouse erythrocyte, lectin MFA diluted 128-fold; for inhibition of agglutination: starting from 1 mg/ml solution of each carbohydrate, 128-fold diluted lectin MFA
# Experimental: In order to confirm that the lectin MFA of the present invention recognizes N-acetylneuraminic acid, hemagglutination-inhibition reaction was performed using monosaccharide, disaccharide and glycoprotein. 50 μl of a 128-fold diluted solution of lectin MFA in 0.15 M NaCl and 50 μl of each 1 mg/ml solution of monosaccharides (e.g., β-D-glucose, D-galactose, L-fucose, D-mannose, N-acetylneuraminic acid, N-glycolylneuraminic acid, N-acetyl-D-glucosamine, N-acetyl-D-galactosamine and methyl-α-D-glucopyranoside), disaccharide (e.g., α-lactose, β-lactose, D-lactose, β-gentiobiose, maltose, D-raffinose or D-cellobiose) and glycoprotein (e.g., fetuin and asialofetuin) in 0.15 M NaCl were added to the each well of a 96-well microplate. After the reaction for one hour or more at room temperature, 50 μl of the erythrocyte suspended in 0.15 M NaCl was added to each well and reacted for one hour at room temperature.
# The negative sign (−) means that there is no hemagglutination-inhibition. […] NeuGc and NeuAc represent N-glycolylneuraminic acid and N-acetylneuraminic acid, respectively.
# [2] = tested on: lectin MFA; experiment: as above; type: biochemical, Maackia fauriei; details: at 10 mM
# [3] = Comparison of binding specificity of lectins, hemagglutination inhibition by N-acetylneuraminic acid; type: biochemical; details: 6.25% human B type erythrocyte; tested up to 10 mM
# Experimental: (§1) The binding specificity of the MFA with Wheat germ agglutinin, Maackia amurensis aggulutinin, Limulus polyphemus lectin, and Sambucus niger agglutinin which have already been reported to recognize N-acetylneuraminic acid was determined by a hemagglutination inhibition response using 10 mM of N-acetylneuraminic acid and N-acetylneuraminic acid-binding fetuin.
# (§2) The negative sign (−) means no hemagglutination inhibition up to 10 mM
# [4] = tested on: fetuin; experiment: Comparison of binding specificity of lectins, hemagglutination inhibition by fetuin; type: biochemical; details: 6.25% human B type erythrocyte
# Experimental: as §1, §2
Molecule,Minimum erythrocyte agglutination inhibition concentration ([1]; dash = no inhibition),other results
OC[C@H]1O[C@@H](O[C@H]2[C@H](O)[C@@H](O)[C@H](O)O[C@@H]2CO)[C@H](O)[C@@H](O)[C@@H]1O [D-cellobiose],—,
O=C[C@H](O)[C@@H](O)[C@@H](O)[C@H](O)CO [D-galactose],—,
OC[C@H]1O[C@@H](O[C@H]2[C@H](O)[C@@H](O)C(O)O[C@@H]2CO)[C@H](O)[C@@H](O)[C@H]1O (stereo partly drawn) [D-lactose],—,
O=C[C@@H](O)[C@@H](O)[C@H](O)[C@H](O)CO [D-mannose],—,
OC[C@H]1O[C@H](OC[C@H]2O[C@H](O[C@]3(CO)O[C@H](CO)[C@@H](O)[C@@H]3O)[C@H](O)[C@@H](O)[C@@H]2O)[C@H](O)[C@@H](O)[C@H]1O [D-raffinose],—,
C[C@H](O)[C@@H](O)[C@@H](O)[C@H](O)C=O [L-fucose],—,
OC[C@H]1O[C@H](O[C@H]2[C@H](O)[C@@H](O)[C@H](O)O[C@@H]2CO)[C@H](O)[C@@H](O)[C@@H]1O [Maltose],—,
CO[C@H]1O[C@H](CO)[C@@H](O)[C@H](O)[C@H]1O [Methyl-α-D-glucopyranoside],—,
CC(=O)N[C@H]1C(O)O[C@H](CO)[C@H](O)[C@@H]1O (stereo partly drawn) [N-acetyl-D-galactosamine],—,
CC(=O)N[C@H]1C(O)O[C@H](CO)[C@@H](O)[C@@H]1O (stereo partly drawn) [N-acetyl-D-glucosamine],—,
CC(=O)N[C@H]1C(O)O[C@H](CO)[C@@H](O[C@@H]2O[C@H](CO)[C@H](O)[C@H](O)[C@H]2O)[C@@H]1O (some centres unmarked) [N-acetylactosamine],,hemagglutination inhibition [2]: did not show hemagglutination inhibition
CC(=O)N[C@H]1[C@H]([C@H](O)[C@H](O)CO)OC(O)(C(=O)O)C[C@@H]1O (some centres unmarked) [N-acetylneuraminic acid],,Minimum erythrocyte agglutination inhibition concentration [1]: 10.0 mM; inhibition of agglutination [1]: inhibited the agglutination
O=C(CO)N[C@H]1[C@H]([C@H](O)[C@H](O)CO)OC(O)(C(=O)O)C[C@@H]1O (some centres unmarked) [N-glycolylneuraminic acid],—,
OC[C@H]1O[C@@H](O[C@H]2[C@H](O)[C@@H](O)[C@@H](O)O[C@@H]2CO)[C@H](O)[C@@H](O)[C@H]1O [α-lactose],—,
OC[C@H]1O[C@@H](O)[C@H](O)[C@@H](O)[C@@H]1O [β-D-glucose],—,
OC[C@H]1O[C@@H](OC[C@H]2O[C@@H](O)[C@H](O)[C@@H](O)[C@@H]2O)[C@H](O)[C@@H](O)[C@@H]1O [β-gentiobiose],—,
OC[C@H]1O[C@@H](O[C@H]2[C@H](O)[C@@H](O)[C@H](O)O[C@@H]2CO)[C@H](O)[C@@H](O)[C@H]1O [β-lactose],—,
Wheat germ agglutinin,,"Minimum hemagglutination-inhibition concentration, N-acetylneuraminic acid [3]: — (The negative sign (−) means no hemagglutination inhibition up to 10 mM); Minimum hemagglutination-inhibition concentration, Fetuin [4]: 207 µM"
B1,,Minimum erythrocyte agglutination inhibition concentration [1]: 0.0052 mM; inhibition of agglutination [1]: inhibited the agglutination
B2,—,
